Key:
[1] = test system: SOX2 expression; assay: SOX2 mRNA (RT-qPCR) and protein (Western blot) in FAT1 WT cells treated with EZH2 inhibitor; format: cell-based, human; settings: GSK343 500 nM, 7 days, versus DMSO
Experimental: (§1) The cells were lysed in cell lysis buffer (Cell Signaling, catalog #9803) with phosphatase inhibitor cocktail (Cell Signaling, catalog 5870) and 1 mM PMSF (Sigma, Cat #P7626) for 5 minutes on ice, sonicated 5 times 10 seconds and then centrifuged for 10 min at 14.000 rpm at 4° C. A range of 5 to 30 micrograms of cell lysate was loaded in NuPage 10% Bis-Tris gel (Invitrogen, Cat #NP0315BOX) and separated by electrophoresis. Proteins were transferred on nitrocellulose membranes (Thermo Scientific, Cat #88018). […]
RNA extraction from FACS isolated cells was performed using RNeasy micro kit (QIAGEN) according to the manufacturer's recommendations. For real-time PCR, after nanodrop quantification, the first strand cDNA was synthesized using Superscript II (Invitrogen) and random hexamers (Roche) in […] final volume. Control of genomic contaminations was measured for each sample by performing the same procedure with or without reverse transcriptase. Quantitative PCR assays were performed using 1 ng of cDNA as template, SYBRGreen mix (Applied Bioscience) on Light Cycler 96 (Roche) real-time PCR system. […]

[2] = test system: H3K27me3; assay: Western blot of global H3K27me3 in cells treated with inhibitor; format: cell-based, human; settings: versus DMSO
Experimental: The cells were lysed in cell lysis buffer (Cell Signaling, catalog #9803) with phosphatase inhibitor cocktail (Cell Signaling, catalog 5870) and 1 mM PMSF (Sigma, Cat #P7626) for 5 minutes on ice, sonicated 5 times 10 seconds and then centrifuged for 10 min at 14.000 rpm at 4° C. A range of 5 to 30 micrograms of cell lysate was loaded in NuPage 10% Bis-Tris gel (Invitrogen, Cat #NP0315BOX) and separated by electrophoresis. Proteins were transferred on nitrocellulose membranes (Thermo Scientific, Cat #88018). The membranes were incubated overnight with anti-phospho-CAMK2 (Rabbit, 1/133, Cell Signaling, clone D21E4, cat #12716) or anti-phospho-SCR Tyr416 (Rabbit, 1:3000, Cell Signaling, clone D49G4, Cat #6943) or anti-H3K27Me3 Lys27 (Rabbit, 1:3000, Millipore, Cat #17-622) or anti-phospho-MEK1/MEK2 Ser218, SER222, Ser226 (Rabbit, 1:1000, Invitrogen, Cat #44-454G) or anti-phospho-EGFR Y1197 (Rat, 1:500, R&D, MAB8058), anti-CAMK2 (pan) (Rabbit, 1/125, Cell Signaling, clone D11A10, cat #4436) or anti-SRC (Rabbit, 1:1000, Cell Signaling, clone32G6, Cat #2123) or anti-H3 (Rabbit, 1:6000, Abcam, Cat #ab1791) or anti-MEK1/MEK2 (Rabbit, 1:1000, Invitrogen, Cat #PA5-31917) or anti-EGFR (Rabbit, 1:1000, Cell Signaling, clone D38B1, Cat #4267), anti-YES (Rabbit, 1:1000, Cell Signaling, clone D9P3E, Cat #65890) and anti-β-actin (1:2000, Abcam, Cat #ab8227). […]

[3] = test system: surface CD44; assay: FACS analysis of surface CD44 in FAT1 KO cells treated with inhibitor; format: cell-based, human; settings: CAMK2 inhibitor (KN93) 10 μM, versus DMSO
Experimental: CD44 expression in FAT1 WT and FAT1 KO human SCC cells was performed after trypsinization of cells and incubation with APC conjugated anti-CD44 (Clone IM7, BioLegend Cat #103011, dilution 1:50) antibody. Living tumor cells were selected by forward and side scatter, doublets discriminating and DAPI dye exclusion.
For CAMK2 inhibition present inventors used CAMK2 inhibitor KN93 (Selleckchem Cat #57423, dissolved in DMSO) at 10 μM and present inventors incubated cells during 96 h refreshing the medium once after 48 h. After 96 h the cells were collected for WB as described above or for FACS analysis. For immunostaining present inventors followed the same treatment but the cells were plated previously on coverslips covered with gelatin.

[4] = test system: SRC/YES phosphorylation; assay: Western blot of phosphorylated SRC/YES in FAT1 KO cells treated with inhibitor; format: cell-based, human; settings: KN93 10 μM, 96 h, versus DMSO
Experimental: A388 cells (human skin SCC) cells were maintained in DMEM medium supplemented with 10% FBS, 100 U/ml Pen/Strep and 2 mM L-glutamine. 293T cells were maintained in DMEM (Gibco) supplemented with 10% FBS, 2 mM Glutamine, 100 U/ml Pen/Strep solution, MEM Non-Essential Amino Acids Solution and Pyruvate. All cell lines were acquired from ATCC and cultured at 37 degrees with 20% 02 and 5% CO2.
as §1

[5] = test system: FAT1 KO human SCC cells; assay: Expression of YAP1, ZEB1, E-Cadherin and SOX2 (immunostaining) in FAT1 KO cells treated with CAMK2 or SRC inhibitors; format: cell-based
Experimental: After 96 h the cells were collected for WB as described above or for FACS analysis. For immunostaining present inventors followed the same treatment but the cells were plated previously on coverslips covered with gelatin.
After 72 h the cells were collected for WB or immunostaining as described above.

[6] = test system: FAT1 WT and FAT1 KO human SCC cells (A388); assay: Drug sensitivity assay (cell viability by FACS), FAT1 WT versus FAT1 KO cells; format: cell-based; settings: cell viability at 48 h, serial dilution of inhibitor, 5% FBS medium
Experimental: For the drug sensitivity assay, cells have been seeded at a density of 4000 cells/well in a 96 well plate. […] 48 hours after the start of treatment, cells have been harvested by trypsinization, and quantified by counting the number of living cells by FACS. Living cells were selected by forward and side scatter and by Hoechst dye exclusion. Each data point is the result of at least three independent replicates; each of the replicates is evaluated using a technical duplicate. Drug response curves and IC50 values have been calculated using the Prism8 software.

[7] = FAT1 KO cells treated with inhibitor (data not shown)

| Compound | SOX2 mRNA expression [1] | SOX2 protein expression [1] | H3K27me3 ([2]; FAT1 WT cells, GSK343 500 nM, 7 days) | levels of surface CD44 [3] | SRC/YES phosphorylation levels [4] | global levels of H3K27me3 ([2]; FAT1 KO cells treated with CAMK2 inhibitor) | SOX2 expression ([5]; FAT1 KO TCs treated with inhibitor (data not shown)) | E-Cadherin expression [5, 7] | ZEB1 [5, 7] | colony morphology [5, 7] | nuclear YAP1 [5, 7] | sensitivity of FAT1 KO cells as compared to FAT1 WT cells [6] |
| --- | --- | --- | --- | --- | --- | --- | --- | --- | --- | --- | --- | --- |
| CCCc1cc(C)[nH]c(=O)c1CNC(=O)c1cc(-c2ccnc(N3CCN(C)CC3)c2)cc2c1cnn2C(C)C [GSK343] | increased | increased | decreased | – | – | – | – | – | – | – | – | – |
| COc1ccc(S(=O)(=O)N(CCO)c2ccccc2CN(C)C/C=C/c2ccc(Cl)cc2)cc1 [KN93] | – | – | – | decreased significantly | greatly decreased | increased | decrease | increase | strong decrease | more compact epithelial colonies | strong decrease | significantly more sensitive |

— patent US20240026458A1, “Method for Determining Sensitivity to an Antineoplastic Agent” (UNIVERSITÉ LIBRE DE BRUXELLES, priority 2020, published 2024)
